System: collagen synthesis in skin
Assay: Rate of collagen synthesis in rat skin (incorporation of stable isotope-labelled L-phenylalanine into collagen)
Type: in vivo, SD (IGS) male rats
Settings: rats fed protein-free food for one week, continuous administration into the jugular vein for approx. three and a half hours, neutral-salt-soluble newly synthesized collagen, t-test vs saline, * p<0.05, FIG. 1
From the text: SD (IGS) male rats consisting of 4 to 6 individuals per group were fed protein-free food (0% casein) for one week to groups of, after which the rats were used in the following experiments.
The administration fluids were each administered continuously into the jugular vein for approximately three and a half hours. Stable isotope-labelled L-phenylalanine was used to determine the rate of collagen synthesis by measuring the labelled percentage of stable isotope-labelled L-phenylalanine that had been incorporated in collagen protein within a fixed period of time. Skin was used as the tissue, and fractions of newly synthesized collagen dissoluble in a neutral salt solution were used as the collagen.
The group administered with physiological saline was used as the control, and assay was conducted by t-test. The symbol * in the figure represents p<0.05. […] Rate of collagen synthesis=ΔEt/ΔEf/ΔT (1) • ΔEt: labelled percentage of the phenylalanine in collagen fractions per unit time • ΔEf: labelled percentage of the free phenylalanine in the skin tissue fluid per unit time • ΔT: unit time

NC(=O)CC[C@H](N)C(=O)O [L-glutamine]
rate of collagen synthesis in comparison with the group administered with physiological saline: enhancement from saline was not observed
